Molecules are shown by their SMILES. Counter-ions that a name gives are not always drawn.

Usually IC50 stands for the concentration at which inhibition is half-maximal. Low values mean higher potency, high ones lower potency. The Kd is the free concentration of one partner at which half of the binding sites on the other are occupied at equilibrium, for simple one-to-one binding.

In one test the test system is DU145 cells. Kind of test: Cell viability, DU145 cells. The test is classed as cell-based, human. Here is the method:
(§1) HeLa- or MDAMB468-Cells or MATU ADR, H460, DU145, CACO-2 or B16F10 cells were maintained in RPMI 1640 or McCoy's 5A cell culture medium+glutamine (PAN Biotech GmbH, Aidenbach, Germany; order no. P04-22100; P04-05500) supplemented with 10% fetal calf serum “Gold” (PAA Laboratories GmbH, Pasching, Austria; order no. A15-151) and grown at 37° C., 5% CO2. For the cell viability assay, cells were seeded with a density of 400 (Hela cells, DSMZ Braunschweig order no. ACC57) or 800 (MDAMB468 cells, ATCC order no. HTB-132) per well in 25 μL in 384-well plates (Greiner Bio-One, Frickenhausen, Germany; order no. 781080). After overnight incubation at 37° C./5% CO2, 25 nL or 75 nL compound were added to each sample well by using BIOMEK FXP Laboratory Automation Workstation (Beckman Coulter, USA). Wells with cells and 0.1% or 0.3% DMSO in culture medium were used as positive controls, wells with cells and 10 μM staurosporine in culture medium were used as negative controls. The cells were incubated with the compounds for 72 h at 37° C./5% CO2. For measurement of cell viability […] Cell Titer Glo reagent (Promega, Madison, USA; order no. G7573), 1:2 diluted with cell culture medium, was added to each well. The 384well-plates were placed for 2 min on an orbital microplate shaker and incubated for further 10 min at room temperature to stabilize the luminescence signal. Luminescence was measured by Envision Plate Reader (Perkin Elmer, USA). EC50 values were calculated with the software Excel Fit (IDBS, Guildford, UK) from 3-fold dilution series comprising at least 8 concentrations in duplicates.
(§2) Cultivated tumour cells (NCl-H460, human non-small cell lung carcinoma cells, ATCC HTB-177; DU 145, hormone-independent human prostate carcinoma cells, ATCC HTB-81; HeLa-MaTu, human cervical carcinoma cells, EPO-GmbH, Berlin; HeLa-MaTu-ADR, multidrug-resistant human cervical carcinoma cells, EPO-GmbH, Berlin; HeLa human cervical tumour cells, ATCC CCL-2; Caco-2 human colorectal carcinoma, ATCC HTB-37; B16F10 mouse melanoma cells, ATCC CRL-6475) were plated at a density of 5,000 cells/well (DU145, HeLa-MaTu-ADR), 3,000 cells/well (NCl-H460, HeLa-MaTu, HeLa), 1,500 cells/well (Caco-2), or 1,000 cells/well (B16F10) in a 96-well multititer plate in 200 μL of their respective growth medium supplemented with 10% fetal calf serum. After 24 hours, the cells of one plate (zero-point plate) were stained with crystal violet (see below), while the medium of the other plates was replaced by fresh culture medium (200 μl), to which the test substances were added in various concentrations (0 μM as well as in the range of 0.001 to 10 μM; the final concentration of the solvent dimethyl sulfoxide was 0.5%). The cells were incubated in the presence of test substances for 4 days. Cell proliferation was determined by staining the cells with crystal violet: The cells were fixed by adding 20 μl/measuring point of an 11% glutaric aldehyde solution at room temperature for 15 minutes. After three washing cycles of the fixed cells with water, the plates were dried at room temperature. […] The extinction was determined by photometry at a wavelength of 595 nm. The change of cell number, in percent, was calculated by normalization of the measured values to the extinction values of the zero-point plate (equivalent to 0%) and the extinction of the untreated (0 μm) cells (equivalent to 100%). The IC50 values were determined by means of a 4 parameter fit using the company's own software.

The next test concerns B16F10 cells. In words: Cell viability, B16F10 cells. The test is classed as cell-based, mouse. The method, then:
as §1, §2

Another test has as its system H460 cells. In words: Cell viability, H460 cells. In kind it is cell-based, human. The method, then: as §1, §2
The subject of a further test is CACO-2 cells. Kind of test: Cell viability, CACO-2 cells. The test is classed as cell-based, human. The method, then:
as §1, §2

The target in a further test is T1, CDK8/Cyclin C (Homo sapiens, UniProt P49336).
T1 construct: purchased Invitrogen
Kind of test: LanthaScreen Eu Kinase Binding Assay, CDK8. The conditions noted are these: tracer 236, read-out: Affinity (Kd) CDK8. Here is the method:
This protocol describes how the LanthaScreen Eu Kinase Binding Assay was performed to determine dissociation constants (Kd) of compounds of general formula (I) and CDK/Cyclin complexes. The principle behind this assay is based upon the binding and displacement of an Alexa Fluor 647-labeled tracer, which binds to the active site of kinases. Binding of the tracer to the kinase is detected using a Eu-labeled antibody. Simultaneous binding of both the tracer and antibody to the kinase gives rise to a FRET-signal. Binding of an inhibitor to the kinase competes for binding with the tracer, resulting in a loss of FRET.
The compounds of general formula (I) summarized in Table 1 were diluted from a 10 mM DMSO stock solution 1:10 in a total volume of 15 μL DMSO. This compound predilution was then serial diluted 1:3 over 8 steps in DMSO and briefly spun down. Each compound solution was now diluted 1:33.33 in kinase buffer (HEPES: 20 mM, pH: 8.0; MgCl2: 10 mM; DTT: 1 mM; Brij-35: 0.01%), mixed thoroughly and spun down. For every sample, 5 μL of the diluted compound were mixed with 5 μL tracer working solution (e.g. 60 nM tracer 236 in kinase buffer for CDK2/Cyclin A) and 5 μL CDK/Cyclin/Anti-GST-AB-working solution (e.g. 15 nM CDK2/Cyclin A, 1:250 dilution of Anti-GST-AB in kinase buffer) in a well of a small volume 384 well plate (Corning Incorporated, Corning, N.Y., USA; order no. 3673). […] For positive controls, in each well 5 μL of DMSO working solution (3% DMSO diluted in kinase buffer) was mixed with 5 μL CDK/Cyclin/Anti-GST-AB-working solution: (e.g. 15 nM CDK2/Cyclin A, 1:250 dilution of Anti-GST-AB in kinase buffer) and 5 μL Tracer working solution (e.g. 60 nM Tracer 236 in kinase buffer for CDK2/Cyclin A). Positive and negative controls were calculated from at least 8 different sample wells. The 384 well plates were mixed in a Teleshaker plate mixer (Beckman Coulter, Brea, Calif., USA) at 2000 rpm for 40 sec, and incubated for 1 h at room temperature before reading. The FRET signal was measured at 340 nm excitation, 665 nm and 615 nm emission (for the kinase tracer and LanthaScreen Eu-AB, respectively) with an Envision spectrophotometer (Perkin Elmer, Waltham, Mass., USA) with 50 μs delay and 300 μs integration time. Kd values were determined from the sigmoidal dose response curves with the software Quattro Workflow (Quattro GmbH, Munich, Germany).
For orientation: TR-FRET usually uses a lanthanide donor and a delayed reading to cut background.

T1 sequence (P49336 whole entry): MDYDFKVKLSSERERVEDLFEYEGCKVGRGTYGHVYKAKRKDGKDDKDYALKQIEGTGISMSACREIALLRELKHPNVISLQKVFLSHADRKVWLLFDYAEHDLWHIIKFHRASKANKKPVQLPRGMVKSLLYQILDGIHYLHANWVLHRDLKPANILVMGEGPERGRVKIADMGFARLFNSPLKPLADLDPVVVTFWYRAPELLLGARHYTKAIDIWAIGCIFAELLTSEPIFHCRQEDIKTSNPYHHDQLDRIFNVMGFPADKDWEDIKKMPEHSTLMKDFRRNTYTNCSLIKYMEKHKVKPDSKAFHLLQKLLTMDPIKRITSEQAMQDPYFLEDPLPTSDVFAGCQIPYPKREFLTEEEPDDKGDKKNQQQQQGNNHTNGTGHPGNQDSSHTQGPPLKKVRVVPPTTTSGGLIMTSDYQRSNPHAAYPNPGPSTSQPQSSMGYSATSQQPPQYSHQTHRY
T1 sequence (P24863 whole entry partner): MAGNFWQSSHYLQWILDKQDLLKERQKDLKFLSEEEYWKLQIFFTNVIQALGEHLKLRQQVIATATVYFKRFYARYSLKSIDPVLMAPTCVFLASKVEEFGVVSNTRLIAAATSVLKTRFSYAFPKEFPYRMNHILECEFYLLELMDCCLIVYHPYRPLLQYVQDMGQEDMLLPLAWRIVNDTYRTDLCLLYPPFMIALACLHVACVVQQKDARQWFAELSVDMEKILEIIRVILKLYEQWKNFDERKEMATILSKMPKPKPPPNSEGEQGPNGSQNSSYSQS

As to `COc1cc(F)ccc1-c1ncnc(Nc2cccc(CS(N)(=O)=O)c2)n1` [B2′, 1-(3-{[4-(4-fluoro-2-methoxyphenyl)-1,3,5-triazin-2-yl]amino}phenyl)methanesulfonamide hydrochloride], the IC50 with DU145 cells (hydrochloride) worked out at 1 µM; in the test with B16F10 cells (hydrochloride), 1.1 µM; in the test on H460 cells (hydrochloride), 1.5 µM; in the test on CACO-2 cells (hydrochloride), 1.5 µM.

For `COc1cccc(F)c1-c1ncnc(Nc2cccc(CS(N)(=O)=O)c2)n1` [Compound B4, 3-[(4-(6-Fluoro-2-methoxyphenyl)-1,3,5-triazin-2-yl)amino]benzenemethanesulfonamide], the Kd at CDK8/Cyclin C was greater than 10 µM.

In the case of `COc1ccccc1-c1ncnc(Nc2cccc(S(N)(=O)=O)c2)n1` [C1′, 3-[(4-(2-Methoxyphenyl)-1,3,5-triazin-2-yl)amino]benzenesulfonamide trifluoroacetic acid salt], the IC50 amounted to 1 µM in the test on DU145 cells (Homo sapiens, DU-145); 1 µM in the test on B16F10 cells (Mus musculus, B16-F10); 1.1 µM with H460 cells (Homo sapiens, NCI-H460); 1.1 µM in the test on CACO-2 cells (Homo sapiens, Caco-2).

On to `COc1cc(F)ccc1-c1ncnc(Nc2cccc(CS(N)(=O)=O)c2)n1` [B2″, 1-(3-{[4-(4-fluoro-2-methoxyphenyl)-1,3,5-triazin-2-yl]amino}phenyl)methanesulfonamide trifluoroacetic acid salt], for which the Kd on CDK8/Cyclin C is greater than 10 µM.

Turning to `NS(=O)(=O)Cc1cccc(Nc2ncnc(-c3ccccc3OCc3ccncc3)n2)c1` [Compound B16, 3-[(4-(2-((4-Pyridinyl)methoxy)phenyl)-1,3,5-triazin-2-yl)amino]benzenemethanesulfonamide], the Kd at CDK8/Cyclin C was greater than 10 µM.

In the case of `NS(=O)(=O)Cc1cccc(Nc2ncnc(-c3ccccc3Oc3ccccc3)n2)c1` [Compound B14, 1-(3-{[4-(2-phenoxyphenyl)-1,3,5-triazin-2-yl]amino}phenyl)methanesulfonamide], the Kd on CDK8/Cyclin C was found to be 5.7 µM.

As to `COc1cc(Cl)ccc1-c1ncnc(Nc2cccc(CS(N)(=O)=O)c2)n1` [Compound B6, 3-[(4-(4-Chloro-2-methoxyphenyl)-1,3,5-triazin-2-yl)amino]benzenemethanesulfonamide], the Kd at CDK8/Cyclin C worked out at 6.78 µM.

In the case of `CCOc1ccccc1-c1ncnc(Nc2cccc(CS(N)(=O)=O)c2)n1` [Compound B12, 3-[(4-(2-Ethoxyphenyl)-1,3,5-triazin-2-yl)amino]benzenemethanesulfonamide], the Kd on CDK8/Cyclin C is greater than 10 µM.

Take `COc1ccccc1-c1ncnc(Nc2cccc(CS(N)(=O)=O)c2)n1` [B1′, 3-[(4-(2-Methoxyphenyl)-1,3,5-triazin-2-yl)amino]benzenemethanesulfonamide trifluoroacetic acid salt]: the IC50 in the test on DU145 cells (Homo sapiens, DU-145) is 3.8 µM; with B16F10 cells (Mus musculus, B16-F10) it was 4.4 µM; with H460 cells (Homo sapiens, NCI-H460), 3.5 µM; with CACO-2 cells (Homo sapiens, Caco-2) it was 4.3 µM.

For `COc1cc(F)ccc1-c1ncnc(Nc2cccc(CS(N)(=O)=O)c2)n1` [Compound B2, 3-[(4-(4-Fluoro-2-methoxyphenyl)-1,3,5-triazin-2-yl)amino]benzenemethanesulfonamide], the IC50 in the test on DU145 cells (Homo sapiens, DU-145) came to 1.5 µM; with B16F10 cells (Mus musculus, B16-F10), 1.6 µM; in the test with H460 cells (Homo sapiens, NCI-H460) it was 1.3 µM; with CACO-2 cells (Homo sapiens, Caco-2) it was 1.6 µM.

`NS(=O)(=O)Cc1cccc(Nc2ncnc(-c3ccccc3OCc3ccccc3)n2)c1` [B13′, 3-[(4-(2-Benzyloxyphenyl)-1,3,5-triazin-2-yl)amino]benzenemethanesulfonamide trifluoroacetic acid salt]: the Kd at CDK8/Cyclin C stood at 4.86 µM. The IC50 stood at 0.33 µM in the test with DU145 cells (Homo sapiens, DU-145); 0.32 µM in the test with B16F10 cells (Mus musculus, B16-F10); 0.32 µM with H460 cells (Homo sapiens, NCI-H460); 0.37 µM in the test with CACO-2 cells (Homo sapiens, Caco-2).

These data come from patent publication US20130079345A1, “[…] ACTIVE DISUBSTITUTED TRIAZINE DERIVATIVES” (BAYER INTELLECTUAL PROPERTY GMBH, priority 2010, published 2013).
